Key:
[1] = (§1) Transient Replicon Assay: In a transient set-up, a Huh-7 lunet hepatoma cell line was transiently transfected with an autonomously replicating RNA encoding a bi-cistronic expression construct. This construct comprises a firefly luciferase reporter gene preceding the NS3-NS5B subgenomic region of HCV (genotype 1a H77 or 1b Con1). Translation of the HCV subgenomic region is mediated by an internal ribosome entry site of encephalomyocarditis virus. The construct is furthermore flanked by 5' and 3' untranslated regions of HCV (genotype 1a H77 or 1b Con 1, respectively), which allow for replication of the RNA. In addition to the wild-type constructs, site-directed mutations were introduced into the transient HCV genotype 1b replicon in the gene encoding for the non-structural protein 5A (NS5A). More precisely, amino acid residues 28, 30, 31 and 93 in NS5A were independently altered. Cells were plated in 384 well plates in the presence of test and control compounds, which were added in various concentrations. Following an incubation of two days, replication of the HCV subgenomic replicon RNA was measured by assaying luciferase activity (using standard luciferase assay substrates and reagents and a Perkin Elmer ViewLux™ ultraHTS microplate imager). HCV subgenomic replicon containing cells in the control cultures have high luciferase expression in the absence of any inhibitor. The inhibitory activity of the compound was monitored, enabling a dose-response curve for each test compound.; type: cell-based
[2] = Stable Replicon Assay: The assay utilized the stably transfected cell line Huh-7 luc/neo (hereafter referred to as Huh-Luc). This cell line harbors an RNA encoding a bicistronic expression construct comprising the wild type NS3-NS5B regions of HCV type 1b translated from an Internal Ribosome Entry Site (IRES) from encephalomyocarditis virus (EMCV), preceded by a reporter portion (FfL-luciferase), and a selectable marker portion (neoR, neomycine phosphotransferase). The construct is flanked by 5' and 3' NTRs (non-translated regions) from HCV type 1b. Continued culture of the replicon cells in the presence of G418 (neoR) is dependent on the replication of the HCV RNA. The stably transfected replicon cells that replicate HCV RNA autonomously and to high levels, encoding inter alia luciferase, were used for screening the antiviral compounds. The replicon cells were plated in 384 well plates in the presence of the test and control compounds which were added in various concentrations. Following an incubation of three days, HCV replication was measured by assaying luciferase activity (using standard luciferase assay substrates and reagents and a Perkin Elmer ViewLux™ ultraHTS microplate imager). Replicon cells in the control cultures have high luciferase expression in the absence of any inhibitor. The inhibitory activity of the compound was monitored on the Huh-Luc cells, enabling a dose-response curve for each test compound.
Nonstructural protein 5A = Nonstructural protein 5A (Hepatitis C virus, UniProt Q5L478); test: as §1; type: cell-based

**Q.** With `CC[C@H](C)[C@H](NC(=O)OC)C(=O)N1CCC[C@H]1c1nc2cc(-c3ccc4cc(-c5cnc([C@@H]6CCCN6C(=O)[C@@H](NC(=O)OC)[C@@H](C)OC)[nH]5)ccc4c3)ccc2[nH]1` as the compound, how does the EC50 [1] read?
**A.** 4 pM

**Q.** And the EC50 [2]?
**A.** 3 pM

**Q.** Which EC50 (Nonstructural protein 5A) does the source give for `CC[C@H](C)[C@H](NC(=O)OC)C(=O)N1CCC[C@H]1c1nc2ccc(-c3ccc4cc(-c5cnc([C@@H]6CCCN6C(=O)[C@@H](NC(=O)OC)C(C)C)[nH]5)ccc4c3)cc2[nH]1` here?
**A.** < 13 pM

**Q.** With `COC(=O)N[C@H](C(=O)N1CCC[C@H]1c1nc2ccc(-c3ccc4cc(-c5cnc([C@@H]6CCCN6C(=O)[C@@H](NC(=O)OC)[C@@H](C)OC)[nH]5)ccc4c3)cc2[nH]1)C(C)C` as the compound, how does the EC50 [2] read?
**A.** 6 pM

**Q.** Which EC50 (Nonstructural protein 5A) does the source give for `COC(=O)N[C@H](C(=O)N1CCC[C@H]1c1ncc(-c2ccc3cc(-c4ccc5nc([C@@H]6CCCN6C(=O)[C@@H](NC(=O)OC)[C@@H](C)OC)[nH]c5c4)ccc3c2)[nH]1)C(C)C` here?
**A.** < 17 pM

**Q.** With `CC[C@@H](C)[C@H](NC(=O)OC)C(=O)N1CCC[C@H]1c1ncc(-c2ccc3cc(-c4ccc5nc([C@@H]6CCCN6C(=O)[C@@H](NC(=O)OC)[C@H](C)CC)[nH]c5c4)ccc3c2)[nH]1` as the compound, how does the EC50 [1] read?
**A.** 2 pM

**Q.** What about the EC50 [2] of the same compound?
**A.** 3 pM
